Each structure is given as a SMILES string. “And” between values parts separate entries of the source, which are not always exact repeats. Equal entries are not always repeated.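 Briefly, cells in 96-well plates were exposed to five compound concentrations for 48 h, and endpoints were estimated by linear interpolation. Abbreviation: GI50, concentration required for 50% inhibition of growth. At the TGI there is no net growth.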

Consider eleven molecules from PubChem BioAssay (NCI).

What all share (assay): DTP human tumour cell line panel, 48 h
The subject of assay [1] is KM12 colon.
The subject of assay [2] is HOP-92 NSCLC.
Assay [3] has as its system NCI/ADR-RES ovarian.
Assay [4] relates to HCT-116 colon.
Assay [5] has as its system HOP-62 NSCLC.
Assay [6] deals with 786-0 renal.
In assay [7] the test system is OVCAR-3 ovarian.
Assay [8] concerns SK-MEL-2 melanoma.
The test system of assay [9] is T-47D breast.
Assay [10] deals with SK-MEL-28 melanoma.

The term GI50 denotes the concentration that inhibits growth by half. One may read the TGI as the concentration at which net growth stops. `C=C1C(=O)O[C@H]2[C@H]1CC/C(COC(=O)c1cn(C)c3ccccc13)=C\CC[C@@]1(C)O[C@@H]21`: the GI50 in assay [1] is 1.83 µM; in [2] it was 0.365 µM; in assay [3] it was 2.15 µM; in assay [4] it was 1.02 µM; in assay [5], 1.81 µM; in assay [6], 1.46 µM. In addition, the GI50 in assay [7] was 0.384 µM; in [8], 1.38 µM; in assay [9], 1.19 µM; in assay [10], 1.55 µM. Besides, the total growth inhibition concentration (TGI) in [1] was 4.79 µM; in assay [2], 2 µM; in assay [3] it was 14.2 µM; in assay [4], 2.24 µM; in assay [5] it was 3.76 µM; in assay [6], 2.88 µM. Moreover, the concentration for total growth inhibition (TGI) in [7] worked out at 1.48 µM; in assay [8], 2.82 µM; in assay [9], 3.42 µM; in [10], 3.08 µM.
For `COC(NC(N)=O)C(=O)O` (stereo not given), the TGI in assay [1], in assay [2], in assay [3], in assay [4], in assay [5] and in [6] was greater than 100 µM each time. The concentration for total growth inhibition (TGI) in [7], in assay [8], in assay [9] and in [10] was greater than 100 µM each time.
For `COc1cccc(-n2ncc3c(N/N=C/c4ccc(C)cc4)ncnc32)c1`, the GI50 in assay [1] was greater than 25 µM; in assay [2], 2.14 µM; in assay [3] it was greater than 25 µM; in assay [4], greater than 25 µM; in [5] it was greater than 25 µM; in assay [6], greater than 25 µM. The GI50 in assay [7], in assay [8], in assay [9] and in assay [10] was greater than 25 µM in each case. Moreover, the total growth inhibition concentration (TGI) in assay [1], in assay [2], in assay [3], in [4], in assay [5] and in assay [6] was greater than 25 µM in each case. For the same molecule, the concentration for total growth inhibition (TGI) in [7], in assay [8], in [9] and in assay [10] was greater than 25 µM throughout.
With `CN(C)c1ccc(C(=N)c2ccc(N(C)C)cc2)cc1`, the GI50 is 1.58 µM and 1.65 µM in [1]; 0.942 µM and 1.52 µM in [2]; 1.68 µM and 1.52 µM in assay [3]; 2.41 µM and 3.46 µM in [4]; 5.11 µM and 2.96 µM in assay [5]; 6.12 µM and 8.26 µM in assay [6]. For the same molecule, the GI50 in [7] was 1.68 µM and 1.91 µM; in [8], 2.24 µM and 3.92 µM; in assay [9] it was 5.51 µM and 3.42 µM; in assay [10], 4.82 µM and 3.26 µM. For the same molecule, the total growth inhibition concentration (TGI) was 16.2 µM and 21.5 µM in [1]; 6.24 µM and 8.69 µM in [2]; 7.42 µM and 5.04 µM in assay [3]; 14.2 µM and 41 µM in [4]; 39.6 µM and 20.5 µM in [5]; 24.4 µM and 32 µM in assay [6]. Moreover, the TGI in [7] was 5.26 µM and 7.3 µM; in [8], 8.35 µM and 16.7 µM; in assay [9], 44.8 µM and 29.2 µM; in assay [10], 48.8 µM and 27.5 µM.
`O=C1/C(=C/c2ccc(F)c(F)c2)CN(C(=O)C(Cl)Cl)C/C1=C\c1ccc(F)c(F)c1`: the GI50 is 0.0497 µM in [1]; 0.211 µM in assay [2]; 0.0633 µM in assay [3]; 0.0326 µM in assay [4]; 0.239 µM in [5]; 0.181 µM in assay [6]. In addition, the 50% growth inhibitory concentration (GI50) is 0.0709 µM in assay [7], 0.262 µM in assay [8], 0.302 µM in assay [9] and 0.208 µM in assay [10]. Besides, the concentration for total growth inhibition (TGI) in assay [1] stood at 0.2 µM; in assay [2], 0.629 µM; in [3], 0.868 µM; in assay [4], 0.12 µM; in assay [5], 0.745 µM; in [6] it was 0.357 µM. Moreover, the total growth inhibition concentration (TGI) in assay [7] was found to be 0.234 µM; in [8], 0.785 µM; in [9], 2.05 µM; in assay [10], 0.513 µM.
Turning to `CCCCC[C@H]1CC=C2C(=O)C=C[C@@H]2CC=CCCCC(=O)O[C@@H](CCCCC)CC=C2C(=O)C=C[C@@H]2CC=CCCCC(=O)O[C@@H](CCCCC)CC=C2C(=O)C=C[C@@H]2CC=CCCCC(=O)O1`, the concentration for 50% growth inhibition (GI50) was 0.31 µM in assay [1]; 0.359 µM in [2]; 4.24 µM in assay [3]; 0.221 µM in assay [4]; 0.259 µM in [5]; 0.325 µM in assay [6]. Moreover, the GI50 is 0.192 µM in [7], 0.281 µM in assay [8], 0.195 µM in assay [9] and 0.311 µM in assay [10]. For the same molecule, the TGI in assay [1] was 1.22 µM; in [2] it was 1.82 µM; in assay [3], greater than 8.75 µM; in assay [4] it was 0.906 µM; in [5], 0.775 µM; in assay [6], 1.43 µM. The TGI in assay [7] was 0.532 µM; in [8], 0.969 µM; in assay [9], 0.713 µM; in assay [10], 1.74 µM.
Regarding `Oc1[nH]c(N=C2N=c3ccccc3=N2)c2ccccc12`, the GI50 was 11.5 µM in [1]; 15 µM in [2]; 3.87 µM in [3]; 7.3 µM in assay [4]; 10.1 µM in assay [5]; 17.2 µM in [6]. In addition, the GI50 in assay [7] is 5.16 µM; in [8], 11.1 µM; in [9], 8.27 µM; in [10] it was 12.8 µM. For the same molecule, the TGI in [1] was determined as 42.9 µM; in assay [2], 49 µM; in assay [3] it was 30.1 µM; in assay [4], 29.5 µM; in [5], 22.9 µM; in [6] it was 39.6 µM. Also, the concentration for total growth inhibition (TGI) is 19.2 µM in assay [7], 29.7 µM in [8], 85.8 µM in assay [9] and 33.6 µM in assay [10].
`COc1cc2c3c(n(CCCCNC(=O)OC(C)(C)C)c(=O)c2cc1OC)-c1cc2c(cc1C3=O)OCO2`: the GI50 in assay [1] was greater than 100 µM; in [2], 60.3 µM; in assay [3], greater than 100 µM; in assay [4], greater than 100 µM; in assay [5], 28.1 µM; in assay [6] it was 25 µM. Also, the GI50 in [7] is 0.225 µM; in assay [8], greater than 100 µM; in assay [9], greater than 100 µM; in [10], greater than 100 µM. For the same molecule, the TGI in [1], in assay [2], in [3], in assay [4], in assay [5] and in assay [6] was greater than 100 µM throughout. Besides, the TGI in assay [7] is 65.9 µM; in assay [8] it was greater than 100 µM; in [9], greater than 100 µM; in [10] it was greater than 100 µM.
Take `C=C1C(=O)O[C@H]2[C@H]1CC/C(Cn1cc(Cc3c[nH]c4ccccc34)nn1)=C\CC[C@@]1(C)O[C@@H]21`: the GI50 is 2.34 µM in [1]; 2 µM in assay [2]; 6.22 µM in assay [3]; 1.06 µM in assay [4]; 3.86 µM in assay [5]; 1.77 µM in assay [6]. The GI50 in [7] is 1.73 µM; in assay [8] it was 1.98 µM; in assay [9], 1.87 µM; in [10], 1.66 µM. Further, the TGI in [1] worked out at 4.99 µM; in assay [2], 3.75 µM; in [3], 21.9 µM; in assay [4], 2.38 µM; in assay [5] it was 14.9 µM; in assay [6], 3.48 µM. In addition, the TGI was determined as 3.15 µM in assay [7], 3.95 µM in assay [8], 4.7 µM in [9] and 3.22 µM in assay [10].
In the case of `Cc1cc(C(=O)Nc2cc(Oc3ccc4nc(NC(=O)C5CC5)cn4n3)ccc2C)n(C)n1`, the GI50 in assay [1] was greater than 10 µM; in [2] it was 3.27 µM; in assay [3] it was greater than 10 µM; in assay [4], 5.66 µM; in assay [5], greater than 10 µM; in assay [6] it was greater than 10 µM. Also, the GI50 in assay [7], in assay [8], in [9] and in assay [10] was greater than 10 µM in each case. Further, the TGI in [1], in [2], in [3], in [4], in assay [5] and in assay [6] was greater than 10 µM each time. For the same molecule, the TGI in assay [7], in [8], in [9] and in assay [10] was greater than 10 µM each time.
For `O=C1Nc2ccccc2/C1=C\c1cccc(/C=C2/C(=O)Nc3ccccc32)n1`, the concentration for 50% growth inhibition (GI50) in [1] is 0.282 µM; in assay [2], 1.48 µM; in assay [3], 0.689 µM; in assay [4], 0.155 µM; in [5], 1.96 µM; in assay [6], 1.08 µM. Moreover, the GI50 in assay [7] was 0.254 µM; in [8], 0.631 µM; in assay [9], 1.13 µM; in assay [10], 0.218 µM. Also, the TGI turned out to be 1.02 µM in assay [1]; 4.49 µM in assay [2]; 6.47 µM in [3]; 0.296 µM in assay [4]; 3.92 µM in assay [5]; 2.49 µM in assay [6]. The concentration for total growth inhibition (TGI) in [7] is 0.683 µM; in [8], 1.62 µM; in assay [9], 3.4 µM; in assay [10] it was 0.468 µM.
